{
  "source": "patent US9630916B2",
  "about": "“Organocatalysts of oxidative protein folding” (Wisconsin Alumni Research Foundation, priority 2014, dated 2017)",
  "molecules": {"B1": {"name": "PDI: enzyme protein disulfide isomerase (EC 5.3.4.1); bovine liver PDI from Sigma-Aldrich used in the assay (protein, UniProt P05307 21-510, looked up)", "Protein disulfide-isomerase": "APDEEDHVLVLHKGNFDEALAAHKYLLVEFYAPWCGHCKALAPEYAKAAGKLKAEGSEIRLAKVDATEESDLAQQYGVRGYPTIKFFKNGDTASPKEYTAGREADDIVNWLKKRTGPAASTLSDGAAAEALVESSEVAVIGFFKDMESDSAKQFFLAAEVIDDIPFGITSNSDVFSKYQLDKDGVVLFKKFDEGRNNFEGEVTKEKLLDFIKHNQLPLVIEFTEQTAPKIFGGEIKTHILLFLPKSVSDYEGKLSNFKKAAESFKGKILFIFIDSDHTDNQRILEFFGLKKEECPAVRLITLEEEMTKYKPESDELTAEKITEFCHRFLEGKIKPHLMSQELPDDWDKQPVKVLVGKNFEEVAFDEKKNVFVEFYAPWCGHCKQLAPIWDKLGETYKDHENIVIAKMDSTANEVEAVKVHSFPTLKFFPASADRTVIDYNGERTLDGFKKFLESGGQDGAGDDDDLEDLEEAEEPDLEEDDDQKAVKDEL"}},
  "key": {"[1]": {"assay": "Determination of disulfide E°′ (equilibration with oxidized β-mercaptoethanol, analytical HPLC, Nernst equation)", "format": "physicochemical", "settings": "equilibrium with βME^ox, mean of three measurements", "description": "(§1) Dithiol 2 was synthesized from diethylenetriamine in a few high-yielding steps (see: The Examples). Thiol pKa values were measured by monitored the thiols A238 am as a function of pH. […] These values are slightly less than those of BMC (Table 1), presumably due to the introduction of an additional electronegative nitrogen atom. To determine the reduction potential of the oxidized form of the dithiol, equimolar amounts of dithiol 2 and oxidized β-mercaptoethanol were equilibrated and the amount of each reduced and oxidized species was quantitated with analytical HPLC. […] Finally, to probe the effect of increasing hydrophobicity on catalyzing the formation of native disulfide bonds in proteins, dithiols 3-8 were synthesized.\nThe reduction potentials of BMC, 2, and 7 were determined as described previously. Briefly, an equilibrium was established between reduced BMC (or 2, 5, or 7) and βME^OX, and analyzed with analytical HPLC. The equilibrium concentrations were determined by integration of the peaks corresponding to βME and βME^ox. From these concentrations, the Keq for the reaction was determined and the reduction potential of BMC (or 2 or 7) was then calculated using the Nernst equation and EβME^OX^∘′=−0.260 V. The values reported are the mean (±SE) of three separate measurements for each compound"}, "sRNase A": {"target": "T1, sRNase A (Bos taurus, UniProt P61823)", "T1 construct": "purchased Sigma-Aldrich", "T1 sequence (P61823 27-150)": "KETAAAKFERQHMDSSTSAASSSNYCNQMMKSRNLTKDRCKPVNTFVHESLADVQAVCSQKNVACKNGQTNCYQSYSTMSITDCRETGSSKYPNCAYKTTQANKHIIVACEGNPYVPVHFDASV", "assay": "Assay for disulfide-bond isomerization activity: unscrambling of sRNase A to give native RNase A", "format": "biochemical, bovine", "settings": "for Folding yield (%): native RNase A from sRNase A, 1 mM catalyst, 30° C., 50 mM Tris-HCl pH 7.6, GSH 1.0 mM, GSSG 0.2 mM, after 5 h", "description": "FIGS. 4A and 4B are graphs illustrating catalysis of disulfide-bond isomerization by PDI and PDI mimics 1-7. (4A) Is a graph of the time-course for the unscrambling of sRNase A to give native RNase A. All reactions were performed at 30° C. in 50 mM Tris-HCl buffer, pH 7.6, containing GSH (1.0 mM), GSSG (0.2 mM), and PDI or dithiol 1-7 (1.0 mM). (4B) Is a graph of yield of native RNase A achieved by PDI mimics 2-7 after 5 h as a function of the calculated log P values listed in Table 1.\nEnzymatic catalysis provides an extremely sensitive measure of native protein structure. RNase A contains eight cysteine residues, which could form 105 (=7×5×3×1) distinct fully oxidized species, only one of which gives rises to enzymatic activity (FIG. 3). Accordingly, the ability of this panel of compounds to catalyze the isomerization of “scrambled” RNase A (sRNase A) was tested. “Scrambled” RNase A is a random mixture of oxidized species, compared to its native state. The isomerization reaction was monitored by measuring the gain of catalytic activity.\nsRNase was prepared as described previously, and validated by its having low ribonucleolytic activity and few free thiols according to Ellman's assay. Bovine liver PDI was from Sigma-Aldrich (product #P3818). The activation of sRNase A in the presence of refolding catalysts was determined as described previously. Refolding reactions were performed at 30° C. in 50 mM Tris-HCl buffer, pH 7.6, containing GSH (1.0 mM), GSSG (0.2 mM), and catalyst (1.0 mM). Organocatalysts were delivered from 100-fold concentrated stock solutions in DMSO. Reactions were initiated by the addition of sRNase A to a final concentration of 5 μg/mL. Reaction progress was monitored by quantifying the cleavage of the substrate 6-FAM-dArUdAdA-6-TAMRA at 493/515 nm, as described previously. Assays were performed in triplicate at ambient temperature in a black polystyrene 96-well plate, in 200 μL of 0.10 M MES-NaOH buffer, pH 6.0, containing NaCl (0.10 M). The resulting fluorescence data were fitted to the equation kcat/KM=(ΔI/Δt)/(If−I0)[E], in which ΔI/Δt is the initial reaction velocity, I0 is the fluorescence intensity before addition of any ribonuclease, If is the fluorescence intensity after complete substrate hydrolysis, and [E] is the total ribonuclease concentration. Reaction progress was monitored every hour until the increase in activity leveled off (˜5 h). In FIG. 4A, data were fitted to eq 2. [active RNase A]=[sRNase A]t=0(1−e^[catalyst]tk^obs) (2)"}, "[2]": {"settings": "cited from earlier work"}, "[3]": {"assay": "Determination of thiol pKa values (A238 vs pH)", "format": "physicochemical", "settings": "potassium phosphate buffers of varied pH, absorbance at 238 nm, 0.10 M potassium phosphate buffers", "description": "as §1\nThe thiol pKa values for 2 and 7 were determined by closely following a procedure reported previously that exploits the elevated absorbance of the deprotonated thiolate at 238 nm. […] [9, 55]\nIn eq 1, CT is the total thiol concentration, εSH^SH is the extinction coefficient of the doubly protonated form of 2 or 7, εSH^S− is the extinction coefficient of the singly protonated form of 2 or 7, and εS−^S− is the extinction coefficient of the doubly deprotonated form of 2 or 7."}, "[4]": {"settings": "PDI active-site disulfide; literature value [21, 22]; cited from earlier work"}, "[5]": {"settings": "higher of two thiol pKa values, read-out: thiol pKa (second value)"}, "[6]": {"settings": "lower of two thiol pKa values, read-out: thiol pKa (first value)"}},
  "note": "Values joined by “and” are separate entries in the source; they are usually repeats but may differ in a detail not shown here. Equal values may be shown once. Read-outs that look alike come from different tables or passages of the source.",
  "data": [
    {"molecule": "O=C(CS)N[C@@H]1CCCC[C@H]1NC(=O)CS", "note": "(racemic) [Dithiol 1, (±)-trans-1,2-bis(mercaptoacetamido)cyclohexane, reference compound]", "values": [
      {"measurement": "Disulfide E°′", "setting": "[1]", "value": "−0.232", "unit": "V"},
      {"measurement": "Folding yield (%)", "setting": "sRNase A", "value": "42 ± 2", "unit": "%"},
      {"measurement": "thiol pKa (first value)", "setting": "[2]; values from ref. [30]", "value": 8.3},
      {"measurement": "thiol pKa (second value)", "setting": "[2]; values from ref. [30]", "value": 9.9}
    ]},
    {"molecule": "O=C(CS)NCCNCCNC(=O)CS", "note": "[Dithiol 2]", "values": [
      {"measurement": "Disulfide E°′", "setting": "[1]; listed as 2", "value": "−0.192", "unit": "V"},
      {"measurement": "Disulfide E°′", "setting": "[1]; listed as dithiol 2", "value": "−0.192±0.003", "unit": "V"},
      {"measurement": "pKa", "setting": "[3]; [5]", "value": "9.2 ± 0.1"},
      {"measurement": "pKa", "setting": "[3]; [6]", "value": "8 ± 0.2"},
      {"measurement": "Folding yield (%)", "setting": "sRNase A", "value": "50 ± 2", "unit": "%"}
    ]},
    {"molecule": "CC(=O)N(CCNC(=O)CS)CCNC(=O)CS", "note": "[Dithiol 3]", "values": [
      {"measurement": "Folding yield (%)", "setting": "sRNase A", "value": "45 ± 2", "unit": "%"}
    ]},
    {"molecule": "CCCC(=O)N(CCNC(=O)CS)CCNC(=O)CS", "note": "[Dithiol 4]", "values": [
      {"measurement": "Folding yield (%)", "setting": "sRNase A", "value": "54 ± 4", "unit": "%"}
    ]},
    {"molecule": "CCCCCC(=O)N(CCNC(=O)CS)CCNC(=O)CS", "note": "[Dithiol 5]", "values": [
      {"measurement": "Disulfide E°′", "setting": "[1]", "value": "−0.203", "unit": "V"},
      {"measurement": "pKa", "setting": "[3]; [5]", "value": "9.3 ± 0.3"},
      {"measurement": "pKa", "setting": "[3]; [6]", "value": "8.1 ± 0.3"},
      {"measurement": "Folding yield (%)", "setting": "sRNase A", "value": "57 ± 1", "unit": "%"}
    ]},
    {"molecule": "O=C(CS)NCCN(CCNC(=O)CS)C(=O)c1ccccc1", "note": "[Dithiol 6]", "values": [
      {"measurement": "Folding yield (%)", "setting": "sRNase A", "value": "60 ± 2", "unit": "%"}
    ]},
    {"molecule": "CCc1ccc(C(=O)N(CCNC(=O)CS)CCNC(=O)CS)cc1", "note": "[Dithiol 7]", "values": [
      {"measurement": "Disulfide E°′", "setting": "[1]", "value": "−0.206", "unit": "V"},
      {"measurement": "pKa", "setting": "[3]; [5]", "value": "9.4 ± 0.2"},
      {"measurement": "pKa", "setting": "[3]; [6]", "value": "8.1 ± 0.2"},
      {"measurement": "Folding yield (%)", "setting": "sRNase A", "value": "66 ± 2", "unit": "%"},
      {"measurement": "increase of the yield of folded RNase A versus the uncatalyzed reaction", "setting": "sRNase A; relative to uncatalyzed reaction (45 ± 2 %)", "value": 47, "unit": "%"}
    ]},
    {"molecule": "B1", "values": [
      {"measurement": "Folding yield (%)", "setting": "sRNase A", "value": "87 ± 2", "unit": "%"},
      {"measurement": "Disulfide E°′", "setting": "[4]", "value": "−0.18 V and −0.180 V"},
      {"measurement": "pKa", "setting": "[2]; N-terminal cysteine in the active site of PDI, literature value", "value": 6.7}
    ]}
  ]
}
